Assay results: patent US20070104778A1, “Controlled-release emulsion compositions” (priority 2005, published 2007)
In brackets after ≈: the same amount, converted by molar mass. Where two headings read alike, the source gives them in different places.

What was measured:
[1] = Solubility of clozapine in solvent; type: physicochemical; conditions: organic solvent or mixture
[2] = Solubility of clozapine in different pH medium; type: physicochemical
[3] = Solubility of clozapine in organic acid and Vitamin E-TPGS + organic acid combination

solubility (Bile extract 1% w/v surfactant solution, aqueous with cosolvent or surfactant or cyclodextrin): 941 µg/mL (≈ 2880 µM)
solubility (Brij 700 1% w/v surfactant solution, aqueous with cosolvent or surfactant or cyclodextrin): 336 µg/mL (≈ 1030 µM)
solubility (Cremphor A25 1% w/v surfactant solution, aqueous with cosolvent or surfactant or cyclodextrin): 506 µg/mL (≈ 1550 µM)
solubility (Cremphor A-6 1% w/v surfactant solution, aqueous with cosolvent or surfactant or cyclodextrin): 11.5 µg/mL (≈ 35.2 µM)
solubility (Cremphor RH 40 1% w/v surfactant solution, aqueous with cosolvent or surfactant or cyclodextrin): 115 µg/mL (≈ 351 µM)
solubility (Labrasol 1% w/v surfactant solution, aqueous with cosolvent or surfactant or cyclodextrin): 70.6 µg/mL (≈ 216 µM)
solubility (Lutrol F-68 1% w/v surfactant solution, aqueous with cosolvent or surfactant or cyclodextrin): 15.3 µg/mL (≈ 46.8 µM)
solubility (PEG 400 1% w/v surfactant solution): 30.9 µg/mL (≈ 94.6 µM)
solubility (PEG 600 1% w/v surfactant solution): 29.7 µg/mL (≈ 90.8 µM)
solubility (PEG distearate 1% w/v surfactant solution, aqueous with cosolvent or surfactant or cyclodextrin): 952 µg/mL (≈ 2910 µM)
solubility (PEG-diolaurate 1% w/v surfactant solution, aqueous with cosolvent or surfactant or cyclodextrin): 104 µg/mL (≈ 320 µM)
solubility (PEG-monolaurate 1% w/v surfactant solution, aqueous with cosolvent or surfactant or cyclodextrin): 372 µg/mL (≈ 1140 µM)
solubility (Sodium Dodecylate Sulfate (SDS) 1% w/v surfactant solution, aqueous with cosolvent or surfactant or cyclodextrin): 1140 µg/mL (≈ 3480 µM)
solubility (Sodium desoxycholate 1% w/v surfactant solution, aqueous with cosolvent or surfactant or cyclodextrin): 342 µg/mL (≈ 1050 µM)
solubility (Solutol HS15 1% w/v surfactant solution, aqueous with cosolvent or surfactant or cyclodextrin): 344 µg/mL (≈ 1050 µM)
solubility (Span 20 1% w/v surfactant solution, aqueous with cosolvent or surfactant or cyclodextrin): 16.1 µg/mL (≈ 49.4 µM)
solubility (Tween 20 1% w/v surfactant solution, aqueous with cosolvent or surfactant or cyclodextrin): 158 µg/mL (≈ 485 µM)
solubility (Tween 80 1% w/v surfactant solution, aqueous with cosolvent or surfactant or cyclodextrin): 399 µg/mL (≈ 1220 µM)
solubility ([1]; 2-pyrrolidinone (Soluphor-P)): > 250000 µg/mL
solubility ([1]; N-methyl-2-pyrrolidinone (NMP)): > 300000 µg/mL
solubility ([2]; DI water, water): 11.8 µg/mL (≈ 36.1 µM)
Solubility (pH dependent behavior) ([2]; low pH regions): fairly good solubility
solubility ([2]; pH 1.5 medium, pH 1.5, simulated gastric fluid): 712 µg/mL (≈ 2180 µM)
solubility ([2]; pH 7.5 medium, pH 7.5, aqueous buffer): 30.7 µg/mL (≈ 93.9 µM)
Solubility (pH dependent behavior) ([2]; pH beyond 5): low solubility
solubility ([3]; Alginic acid 1% w/v, aqueous buffer): 9.99 µg/mL
solubility ([3]; Ascorbic acid 1% w/v, aqueous buffer): 259 µg/mL
solubility ([3]; Citric acid (0.1M), aqueous buffer): 35400 µg/mL
solubility ([3]; Fumaric acid (0.01M), aqueous buffer): 8880 µg/mL
solubility ([3]; Oleinic acid 1% w/v, aqueous with cosolvent or surfactant or cyclodextrin): 9.86 µg/mL
Solubility of Clozapine in Organic Acid ([3]; Stearic acid 1% w/v): Form conjugated compound
solubility ([3]; Succinic acid (0.05M), aqueous buffer): 25700 µg/mL
Compound: CN1CCN(C2=Nc3cc(Cl)ccc3Nc3ccccc32)CC1 [Clozapine, clozapine]
